Legend:
5-HT3 [1] = target: T1, 5-HT3 (Rattus norvegicus, UniProt P35563); test: Inhibition of the von Bezold-Jarisch chemoreflex evoked by 5-HT in the anesthetized rat (5HT3 antagonist activity in vivo); parameters: evoked by 5-HT in the anesthetized rat; from tissue; host or cells: living anesthetized rat (in vivo; native receptors, by own knowledge on cardiac vagal afferents); settings: 5-HT 30 μg/kg i.v.
T1 sequence (P35563 24-483): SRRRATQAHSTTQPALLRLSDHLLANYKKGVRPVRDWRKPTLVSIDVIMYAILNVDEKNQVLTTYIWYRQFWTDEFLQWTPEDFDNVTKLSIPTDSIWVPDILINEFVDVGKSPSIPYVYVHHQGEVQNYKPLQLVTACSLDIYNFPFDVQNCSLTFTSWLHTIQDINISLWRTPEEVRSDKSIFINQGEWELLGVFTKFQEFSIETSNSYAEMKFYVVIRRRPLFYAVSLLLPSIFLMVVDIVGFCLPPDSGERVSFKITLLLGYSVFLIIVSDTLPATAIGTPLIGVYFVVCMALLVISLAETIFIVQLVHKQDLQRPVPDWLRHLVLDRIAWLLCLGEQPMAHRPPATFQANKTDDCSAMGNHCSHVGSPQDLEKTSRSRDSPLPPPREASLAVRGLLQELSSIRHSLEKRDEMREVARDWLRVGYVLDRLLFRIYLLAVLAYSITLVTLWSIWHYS
Description: Pharmacol. 326, 36-44 (1984).
The following Table I reports in-vivo 5HT3 antagonist activity data obtained in this test for the representative compound of the invention 2-(5-methyl-1H-imidazol-4-yl)methyl-1,2-dihydro-imidazo[1,5-a]indol-3-one (internal code […]).
elicited by 5-HT (30 μg/kg i.v.) by FCE 28572
in the anesthetized rat. Values are mean ± in […]

5-HT3 [2] = target: T1, 5-HT3; test: Inhibition of the binding of ^3 H-BRL 43694 (5-HT3 binding affinity, rat entorhinal cortex); parameters: from tissue; host or cells: rat entorhinal cortex (brain cortical membranes)
Description: The following Table II summarized the data obtained in this in-vitro test for the representative compound of the invention coded as FCE 28572.
5-HT3 binding affinity for rat entorhinal

**Q.** Which “% inhibition of the von Bezold-Jarisch reflex elicited by 5-HT” value (5-HT3 [1]; compound 100 μg/kg i.v., mean ± S.E.M. from 6 animals) does the source give for Cc1[nH]cnc1CN1Cc2cc3ccccc3n2C1=O [FCE 28572, 2-(5-methyl-1H-imidazol-4-yl)methyl-1,2-dihydro-imidazo[1,5-a]indol-3-one] here?
**A.** 86.7%

**Q.** And the ED50 (5-HT3 [1]; iv, limits (10.4-31.7), read-out: ED50 (limits), inhibition of the von Bezold-Jarisch reflex elicited by 5-HT)?
**A.** 0.0161 mg/kg

**Q.** What about the IC50 (5-HT3 [2]) of the same compound?
**A.** 23 nM

Reference: patent US5874457A, “Imidazolylalkyl derivatives of imidazo[1,5-a]indol-3-one” (Pharmacia & Upjohn S.p.A., priority 1994, dated 1999)
